PubChem BioAssay (NCI)
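Compound exposure: 48 hours, 5 concentrations, 96-well plates. At the TGI there is no net growth.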

Experiments:
Test in all cases: inhibition of tumour cell growth, NCI panel, 48 h
CAKI-1 renal = system: CAKI-1 renal
NCI-H23 lung = system: NCI-H23 lung
SF-539 CNS = system: SF-539 CNS
SF-295 CNS = system: SF-295 CNS
SNB-19 CNS = system: SNB-19 CNS
HCT-15 colon = system: HCT-15 colon
NCI/ADR-RES ovarian = system: NCI/ADR-RES ovarian
MDA-MB-231 breast = system: MDA-MB-231 breast
SK-MEL-2 melanoma = system: SK-MEL-2 melanoma
RPMI-8226 leukemia = system: RPMI-8226 leukemia
UACC-257 melanoma = system: UACC-257 melanoma
ACHN renal = system: ACHN renal
BT-549 breast = system: BT-549 breast
SNB-75 CNS = system: SNB-75 CNS
OVCAR-4 ovarian = system: OVCAR-4 ovarian
IGROV1 ovarian = system: IGROV1 ovarian
RXF 393 renal = system: RXF 393 renal
HOP-62 NSCLC = system: HOP-62 NSCLC
OVCAR-5 ovarian = system: OVCAR-5 ovarian
OVCAR-8 ovarian = system: OVCAR-8 ovarian
OVCAR-3 ovarian = system: OVCAR-3 ovarian
KM12 colon = system: KM12 colon
SK-OV-3 ovarian = system: SK-OV-3 ovarian
UACC-62 melanoma = system: UACC-62 melanoma
CCRF-CEM leukemia = system: CCRF-CEM leukemia
K-562 leukemia = system: K-562 leukemia
HT29 colon = system: HT29 colon
NCI-H460 lung = system: NCI-H460 lung
MDA-N = system: MDA-N
MALME-3M melanoma = system: MALME-3M melanoma
SK-MEL-5 melanoma = system: SK-MEL-5 melanoma
M14 melanoma = system: M14 melanoma
A549 NSCLC = system: A549 NSCLC
MDA-MB-435 = system: MDA-MB-435
A498 renal = system: A498 renal
HOP-92 NSCLC = system: HOP-92 NSCLC
PC-3 prostate = system: PC-3 prostate
NCI-H226 lung = system: NCI-H226 lung
HCC-2998 colon = system: HCC-2998 colon
EKVX NSCLC = system: EKVX NSCLC
TK-10 renal = system: TK-10 renal
786-0 renal = system: 786-0 renal
U251 CNS = system: U251 CNS
SF-268 CNS = system: SF-268 CNS
MOLT-4 leukemia = system: MOLT-4 leukemia
SW-620 colon = system: SW-620 colon
MCF7 breast = system: MCF7 breast
UO-31 renal = system: UO-31 renal
LOX IMVI melanoma = system: LOX IMVI melanoma
SN12C renal = system: SN12C renal
HCT-116 colon = system: HCT-116 colon
HS 578T breast = system: HS 578T breast
T-47D breast = system: T-47D breast
COLO 205 colon = system: COLO 205 colon
NCI-H522 lung = system: NCI-H522 lung

Work on `CC(=O)C1=C(N=[N+]=[N-])c2cccc3cccc(c23)C1=O` yielded a TGI (CAKI-1 renal) of 30.7 µM, a TGI (NCI-H23 lung) of 43.4 µM and a TGI (SF-539 CNS) of 42 µM. The TGI (SF-295 CNS) was 61.7 µM, the TGI (SNB-19 CNS) was 91.7 µM and the TGI (HCT-15 colon) was 32 µM. It also gave a TGI (NCI/ADR-RES ovarian) of 70.9 µM, a TGI (MDA-MB-231 breast) of 32 µM and a TGI (SK-MEL-2 melanoma) of 31.4 µM. It also gave a TGI (RPMI-8226 leukemia) of 42.8 µM, a TGI (UACC-257 melanoma) of 43.8 µM and a TGI (ACHN renal) of 32.4 µM. It also gave a TGI (BT-549 breast) of 46.2 µM, a TGI (SNB-75 CNS) of 66.9 µM and a TGI (OVCAR-4 ovarian) of 49.1 µM. For the same molecule, the TGI (IGROV1 ovarian) was 32.6 µM, the TGI (RXF 393 renal) was 28 µM and the TGI (HOP-62 NSCLC) was 29.7 µM. It also gave a TGI (OVCAR-5 ovarian) of 54.8 µM, a TGI (OVCAR-8 ovarian) of 65.8 µM and a TGI (OVCAR-3 ovarian) of 24.6 µM. For the same molecule, the TGI (KM12 colon) was 44.7 µM, the TGI (SK-OV-3 ovarian) was 82.3 µM and the TGI (UACC-62 melanoma) was 34.2 µM. The TGI (CCRF-CEM leukemia) was 25.6 µM, the TGI (K-562 leukemia) was 89.8 µM and the TGI (HT29 colon) was 39.3 µM. It also gave a TGI (NCI-H460 lung) of 56.3 µM, a TGI (MDA-N) of 42.7 µM and a TGI (MALME-3M melanoma) of 33.5 µM. The TGI (SK-MEL-5 melanoma) was 38.1 µM, the TGI (M14 melanoma) was 26.5 µM and the TGI (A549 NSCLC) was greater than 100 µM. For the same molecule, the TGI (MDA-MB-435) was 48.5 µM, the TGI (A498 renal) was 71 µM and the TGI (HOP-92 NSCLC) was 42.8 µM. For the same molecule, the TGI (PC-3 prostate) was 53.2 µM, the TGI (NCI-H226 lung) was 64.2 µM and the TGI (HCC-2998 colon) was 32 µM. The TGI (EKVX NSCLC) was 46.3 µM, the TGI (TK-10 renal) was 36.1 µM and the TGI (786-0 renal) was 33.7 µM. The TGI (U251 CNS) was 66 µM, the TGI (SF-268 CNS) was 75.2 µM and the TGI (MOLT-4 leukemia) was 33.2 µM. It also gave a TGI (SW-620 colon) of 55.1 µM, a TGI (MCF7 breast) of 64.6 µM and a TGI (UO-31 renal) of 29.7 µM. It also gave a TGI (LOX IMVI melanoma) of 30.1 µM, a TGI (SN12C renal) of 39.7 µM and a TGI (HCT-116 colon) of 30.8 µM. The TGI (HS 578T breast) was 80.6 µM, the TGI (T-47D breast) was 41.2 µM and the TGI (COLO 205 colon) was 31.7 µM. The TGI (NCI-H522 lung) was 29.3 µM.
